Laboratory results as given in the supplement of paper PMC11061612.

How the values were obtained:
Assay in all cases: combination Emax (second highest fraction inhibited in the dose matrix, 72 h); higher = more inhibition; extreme values may be limits of the assay
[1] = system: AMO-1 (Plasma Cell Myeloma)
Summary of the method: (§1)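 Cell lines grown in DMEM/F12 or RPMI with 10% FBS were plated in 1536-well plates and held 24 hours at 37°C, 5% CO2 before 72 hours of exposure to two-drug dose matrices, with DMSO typically at 0.2%. CellTiter-Glo 2.0 luminescence gave viability, which was converted to inhibition. Vehicle wells were set to 0 and blank wells to 1. Combination Emax is the second-highest inhibition in the matrix, and Bliss excess is the observed combination effect minus the expected EA + EB − EA·EB, where EA and EB are the single-agent effects.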

[2] = system: Caov-4 (Ovarian Carcinoma)
Summary of the method: as §1

[3] = system: EW-24 (Ewing's Sarcoma)
Summary of the method: as §1

[4] = system: EoL-1-cell (Acute Myeloid Leukemia)
Summary of the method: as §1

[5] = system: HGC-27 (Gastric Carcinoma)
Summary of the method: as §1

[6] = system: HSC-4 (Oral Cavity Carcinoma)
Summary of the method: as §1

[7] = system: KARPAS-299 (T-Cell Non-Hodgkin's Lymphoma)
Summary of the method: as §1

[8] = system: KMOE-2 (Acute Myeloid Leukemia)
Summary of the method: as §1

[9] = system: LU-65 (Non-Small Cell Lung Carcinoma)
Summary of the method: as §1

[10] = system: MLMA (Other Blood Carcinomas)
Summary of the method: as §1

[11] = system: NCI-H1915 (Non-Small Cell Lung Carcinoma)
Summary of the method: as §1

[12] = system: NCI-H358 (Lung Adenocarcinoma)
Summary of the method: as §1

[13] = system: NUGC-3 (Gastric Carcinoma)
Summary of the method: as §1

[14] = system: OE19 (Esophageal Adenocarcinoma)
Summary of the method: as §1

[15] = system: OVCAR-4 (Ovarian Carcinoma)
Summary of the method: as §1

[16] = system: PWR-1E (Non-Cancerous)
Summary of the method: as §1

[17] = system: SCC-15 (Oral Cavity Carcinoma)
Summary of the method: as §1

[18] = system: TE-1 (Esophageal Squamous Cell Carcinoma)
Summary of the method: as §1

[19] = system: TK10 (Kidney Carcinoma)
Summary of the method: as §1

[20] = system: YH-13 (Glioblastoma)
Summary of the method: as §1

SMILES | combination Emax [1] | combination Emax [2] | combination Emax [3] | combination Emax [4] | combination Emax [5] | combination Emax [6] | combination Emax [7] | combination Emax [8] | combination Emax [9] | combination Emax [10] | combination Emax [11] | combination Emax [12] | combination Emax [13] | combination Emax [14] | combination Emax [15] | combination Emax [16] | combination Emax [17] | combination Emax [18] | combination Emax [19] | combination Emax [20]
Cc1c2c(nn1C)CSCc1cc(n(C)n1)CSc1cc(c3ccccc3c1)OCCCc1c(C(=O)O)n(C)c3c-2c(Cl)ccc13 [AZD5991] + Cc1cc2ncnn2cc1Nc1ncc2c(n1)n(C1CCOCC1)c(=O)n2C [AZD7648] (first compound max 1 µM, 7x7, partner max 10 µM) | 1 | 0.57 | 0.258 | 1 | 0.603 | 0.171 | 1 | 0.74 | 0.397 | 0.439 | 0.3 | 0.331 | 0.428 | 0.424 | 0.255 | 0.247 | 0.25 | 0.599 | 0.385 | 0.351
Cc1c2c(nn1C)CSCc1cc(n(C)n1)CSc1cc(c3ccccc3c1)OCCCc1c(C(=O)O)n(C)c3c-2c(Cl)ccc13 [AZD5991] + Cn1cnc2c(F)c(Nc3ccc(Br)cc3Cl)c(C(=O)NOCCO)cc21 [Selumetinib] (first compound max 1 µM, 7x7, partner max 3 µM) | 1 | 0.856 | 0.214 | 1 | 0.306 | 0.278 | 0.992 | 1 | 0.716 | 0.393 | 0.568 | 0.485 | 0.355 | 0.49 | 0.376 | 0.21 | 0.322 | 0.655 | 0.454 | 0.178
C[C@@H]1COCCN1c1cc(C2([S@](C)(=N)=O)CC2)nc(-c2ccnc3[nH]ccc23)n1 [AZD6738] + O=C(c1cc(Cc2n[nH]c(=O)c3ccccc23)ccc1F)N1CCN(C(=O)C2CC2)CC1 [Olaparib] (first compound max 10 µM, 7x7, partner max 10 µM) | 0.866 | 0.969 | 0.567 | 0.992 | 0.902 | 0.691 | 0.98 | 0.616 | 0.751 | 0.988 | 0.557 | 0.544 | 0.778 | 0.55 | 0.664 | 0.842 | 0.587 | 0.319 | 0.471 | 0.611
NC1(C(=O)N[C@@H](CCO)c2ccc(Cl)cc2)CCN(c2ncnc3[nH]ccc23)CC1 [Capivasertib] + CC(=O)c1c(C)c2cnc(Nc3ccc(N4CCNCC4)cn3)nc2n(C2CCCC2)c1=O [Palbociclib] (first compound max 10 µM, 7x7, partner max 10 µM) | 0.743 | 0.377 | 0.495 | 0.858 | 0.874 | 0.423 | 0.479 | 0.541 | 0.448 | 0.515 | 0.491 | 0.436 | 0.592 | 0.523 | 0.168 | 0.535 | 0.35 | 0.204 | 0.516 | 0.609
NC1(C(=O)N[C@@H](CCO)c2ccc(Cl)cc2)CCN(c2ncnc3[nH]ccc23)CC1 [Capivasertib] + CC(C)n1c(=O)n(C)c2cnc3cc(F)c(-c4ccc(OCCCN5CCCCC5)nc4)cc3c21 [AZD1390] (first compound max 10 µM, 7x7, partner max 0.3 µM) | 0.633 | 0.245 | 0.407 | 0.874 | 0.852 | 0.337 | 0.376 | 0.33 | 0.401 | 0.452 | 0.287 | 0.374 | 0.339 | 0.346 | 0.162 | 0.4 | 0.227 | 0.153 | 0.411 | 0.541
NC1(C(=O)N[C@@H](CCO)c2ccc(Cl)cc2)CCN(c2ncnc3[nH]ccc23)CC1 [Capivasertib] + CCN(CCO)CCCOc1ccc2c(Nc3cc(CC(=O)Nc4cccc(F)c4)[nH]n3)ncnc2c1 [AZD2811] (first compound max 10 µM, 7x7, partner max 1 µM) | 0.769 | 0.383 | 0.659 | 1 | 0.939 | 0.514 | 0.337 | 0.489 | 0.461 | 0.461 | 0.334 | 0.394 | 0.448 | 0.847 | 0.323 | 0.713 | 0.334 | 0.383 | 0.403 | 0.627
